Reference: PMC7866863, “A Cellular Assay for the Identification and Characterization of Connexin Gap Junction Modulators” (International Journal of Molecular Sciences, 2021)

Molecular target: T1, Cx43 (connexin 43 gap junction) (Mus musculus, UniProt P23242)
T1 construct: gene Gja1; mouse Cx43 coding region, recombinantly expressed in HeLa donor and biosensor cells
Assay: HeLa coculture cAMP-transfer GloSensor luminescence assay for Cx43 gap junctions
Assay type: cell-based

T1 sequence (P23242 2-382): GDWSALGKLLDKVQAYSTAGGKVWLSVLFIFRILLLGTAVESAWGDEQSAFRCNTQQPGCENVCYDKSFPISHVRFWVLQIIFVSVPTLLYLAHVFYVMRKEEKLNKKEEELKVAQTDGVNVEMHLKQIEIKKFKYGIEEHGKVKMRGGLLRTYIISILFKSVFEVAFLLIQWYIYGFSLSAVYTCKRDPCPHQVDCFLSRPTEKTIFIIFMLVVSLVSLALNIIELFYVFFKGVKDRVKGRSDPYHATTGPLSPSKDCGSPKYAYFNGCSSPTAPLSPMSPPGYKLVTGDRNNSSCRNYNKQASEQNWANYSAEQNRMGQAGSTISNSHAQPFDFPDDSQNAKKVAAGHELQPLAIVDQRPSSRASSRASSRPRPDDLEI

## CC1(C)[C@@H](OC(=O)CCC(=O)O)CC[C@]2(C)[C@H]3C(=O)C=C4[C@@H]5C[C@@](C)(C(=O)O)CC[C@]5(C)CC[C@@]4(C)[C@]3(C)CC[C@@H]12 [carbenoxolone]
  IC50: 44.5 ± 4.8 µM
